Data reported in paper PMC5829263, “Homoarginine and inhibition of human arginase activity: kinetic characterization and biological relevance” (Scientific Reports, 2018).
“Also recorded” adds a separate entry of the source. Structures can show the parent of a compound that is named as a salt. Where two headings read alike, the source gives them in different places.

How the values were obtained:
[1] = molecular target: T1, recombinant human arginase 1 (Homo sapiens, UniProt P05089); experiment: Arginase 1 inhibition, UPLC-MS measurement of ARG to ORN conversion in HEK293T cell lysate; conditions: for % of control activity at the corresponding [Inhibitor] ± SE: arginase 1; for % of control activity at the corresponding [Inhibitor] ± SE / remaining activity at 1 µM / remaining activity at 10 µM / remaining activity at 100 µM / remaining activity at 1000 µM / remaining activity at 10000 µM: mean of two experiments; for arginase 1 inhibitor assessment in words: at the concentrations tested, both ARG concentrations; for remaining activity at 1 µM / remaining activity at 10 µM / remaining activity at 100 µM / remaining activity at 1000 µM / remaining activity at 10000 µM: read-out: % of control activity at the corresponding [Inhibitor] ± SE, arginase 1; for remaining activity at 10000 µM: inhibitor 10,000 µM;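 on all read-outs here: arginase 1–expressing HEK293T lysate at 0.05 mg/mL in pH 7.4 phosphate buffer, inhibitor preincubated 5 min with enzyme, then reaction started by adding ARG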
T1 sequence (P05089 1-322): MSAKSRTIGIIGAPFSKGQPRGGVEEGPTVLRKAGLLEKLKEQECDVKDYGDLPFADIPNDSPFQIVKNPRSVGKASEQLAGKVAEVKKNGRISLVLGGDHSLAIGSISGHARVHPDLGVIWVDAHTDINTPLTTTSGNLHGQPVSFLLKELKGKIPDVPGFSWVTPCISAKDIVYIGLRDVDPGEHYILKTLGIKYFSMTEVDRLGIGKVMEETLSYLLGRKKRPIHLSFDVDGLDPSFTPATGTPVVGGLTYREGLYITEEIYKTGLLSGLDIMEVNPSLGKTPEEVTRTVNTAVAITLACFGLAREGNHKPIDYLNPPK
Procedure: (§1) Following a 5-min pre-equilibration period reactions were initiated by the addition of the cell lysate solution in 0.05 M phosphate buffer to a pre-equilibrated aqueous solution of the substrate (ARG).
(§2) The samples were vortex mixed (20 sec) and cooled in an ice/water bath for 10 min prior to centrifugation (5 min, 18,000 × g, room temperature) to precipitate the proteins. An aliquot of the supernatant layer was diluted with a 7:3 mobile phase A/mobile phase B solution into glass UPLC vial inserts.
(§3) Incubation mixtures comprised of HEK293T cell lysate expressing arginase 1 (0.05 mg/mL) or arginase 2 (0.1 mg/mL), phosphate buffer (0.05 M, pH 7.4), inhibitor (0, 0.1, 1, 10, 100, 1000 or 10000 μM) and ARG (0.1, 2 or 3 mM). Following a 5-min pre-incubation of the potential inhibitor with arginase 1 or arginase 2, reactions were initiated by the addition of a pre-equilibrated solution of the substrate ARG.
Ki values were derived from fitting the competitive inhibition equation to experimental data. Ki data are the mean of three singlicate experiments.

[2] = molecular target: T2, recombinant human arginase 2 (Homo sapiens, UniProt P78540); experiment: Arginase 2 inhibition, UPLC-MS measurement of ARG to ORN conversion in HEK293T cell lysate; conditions: for % of control activity at the corresponding [Inhibitor] ± SE: arginase 2; for % of control activity at the corresponding [Inhibitor] ± SE / remaining activity at 1 µM / remaining activity at 10 µM / remaining activity at 100 µM / remaining activity at 1000 µM / remaining activity at 10000 µM: mean of two experiments; for arginase 2 inhibitor assessment in words: at the concentrations tested; for remaining activity at 1 µM / remaining activity at 10 µM / remaining activity at 100 µM / remaining activity at 1000 µM / remaining activity at 10000 µM: read-out: % of control activity at the corresponding [Inhibitor] ± SE, arginase 2; for remaining activity at 10000 µM: inhibitor 10,000 µM;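 on all read-outs here: HEK293T lysate carrying arginase 2 at 0.1 mg/mL in 0.05 M phosphate buffer pH 7.4, inhibitor preincubated with enzyme 5 min before ARG addition started the reaction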
T2 sequence (P78540 23-354): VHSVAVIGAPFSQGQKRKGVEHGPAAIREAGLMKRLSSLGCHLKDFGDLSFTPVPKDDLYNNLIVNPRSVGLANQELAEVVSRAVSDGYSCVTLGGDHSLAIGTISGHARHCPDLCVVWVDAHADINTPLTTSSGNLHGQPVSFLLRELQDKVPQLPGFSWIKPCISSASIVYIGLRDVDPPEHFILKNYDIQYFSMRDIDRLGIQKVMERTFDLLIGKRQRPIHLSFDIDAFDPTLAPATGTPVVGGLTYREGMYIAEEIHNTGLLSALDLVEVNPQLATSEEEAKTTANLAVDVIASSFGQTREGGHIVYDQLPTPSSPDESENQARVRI
Procedure: as §1, §2, §3
Sample were diluted 3:17 in mobile phase solution prior injection.

Structure (SMILES)	% of control activity at the corresponding [Inhibitor] ± SE ([1]; ARG 100 µM, inhibitor 0.1 µM)	% of control activity at the corresponding [Inhibitor] ± SE ([1]; ARG 100 µM, inhibitor 1 µM)	% of control activity at the corresponding [Inhibitor] ± SE ([1]; ARG 100 µM, inhibitor 10 µM)	% of control activity at the corresponding [Inhibitor] ± SE ([1]; ARG 100 µM, inhibitor 100 µM)	% of control activity at the corresponding [Inhibitor] ± SE ([1]; ARG 100 µM, inhibitor 1,000 µM)	% of control activity at the corresponding [Inhibitor] ± SE ([1]; ARG 3 mM, inhibitor 0.1 µM)	% of control activity at the corresponding [Inhibitor] ± SE ([1]; ARG 3 mM, inhibitor 1 µM)	% of control activity at the corresponding [Inhibitor] ± SE ([1]; ARG 3 mM, inhibitor 10 µM)	% of control activity at the corresponding [Inhibitor] ± SE ([1]; ARG 3 mM, inhibitor 100 µM)	% of control activity at the corresponding [Inhibitor] ± SE ([1]; ARG 3 mM, inhibitor 1,000 µM)	arginase 1 inhibitor assessment in words [1]	% of control activity at the corresponding [Inhibitor] ± SE ([2]; ARG 100 µM, inhibitor 0.1 µM)	% of control activity at the corresponding [Inhibitor] ± SE ([2]; ARG 100 µM, inhibitor 1 µM)	% of control activity at the corresponding [Inhibitor] ± SE ([2]; ARG 100 µM, inhibitor 10 µM)	% of control activity at the corresponding [Inhibitor] ± SE ([2]; ARG 100 µM, inhibitor 100 µM)	% of control activity at the corresponding [Inhibitor] ± SE ([2]; ARG 100 µM, inhibitor 1,000 µM)	% of control activity at the corresponding [Inhibitor] ± SE ([2]; ARG 2 mM, inhibitor 0.1 µM)	% of control activity at the corresponding [Inhibitor] ± SE ([2]; ARG 2 mM, inhibitor 1 µM)	% of control activity at the corresponding [Inhibitor] ± SE ([2]; ARG 2 mM, inhibitor 10 µM)	arginase 2 inhibitor assessment in words [2]	other results
CN(C)C(N)=NCCC[C@H](N)C(=O)O [ADMA, asymmetric dimethylarginine]	102 ± 9%	109 ± 4%	120 ± 12%	109 ± 8%	87 ± 1%	98 ± 7%	89 ± 2%	90 ± 1%	86 ± 4%	69 ± 4%	poor arginase 1 inhibitors	115 ± 7%	112 ± 13%	109 ± 9%	94 ± 14%	104 ± 3%	80 ± 7%	84 ± 12%	92 ± 12%	poor arginase inhibitors	% of control activity at the corresponding [Inhibitor] ± SE ([2]; ARG 2 mM, inhibitor 100 µM): 90 ± 14%; % of control activity at the corresponding [Inhibitor] ± SE ([2]; ARG 2 mM, inhibitor 1,000 µM): 87 ± 15%
CN=C(NC)NCCC[C@H](N)C(=O)O [SDMA, NG, N′G-dimethyl-L-arginine dihydrochloride]	96 ± 3%	113 ± 22%	104 ± 4%	106 ± 17%	69 ± 10%	113 ± 16%	93 ± 5%	92 ± 2%	84 ± 1%	73 ± 5%	poor arginase 1 inhibitors	90 ± 2%	96 ± 1%	95 ± 3%	90 ± 1%	89 ± 1%	96 ± 2%	100 ± 3%	107 ± 1%	poor arginase inhibitors	% of control activity at the corresponding [Inhibitor] ± SE ([2]; ARG 2 mM, inhibitor 100 µM): 102 ± 1%; % of control activity at the corresponding [Inhibitor] ± SE ([2]; ARG 2 mM, inhibitor 1,000 µM): 96 ± 1%
O=C(O)[C@@H]1CCCN1 [PRO, proline]	–	–	–	–	–	–	–	–	–	–	poor arginase 1 inhibitors; also recorded: no significant inhibition	–	–	–	–	–	–	–	–	poor inhibitors; also recorded: no significant inhibition	remaining activity at 1 µM ([1]; ARG 100 µM, inhibitor 1 µM): 115 ± 1%; remaining activity at 10 µM ([1]; ARG 100 µM, inhibitor 10 µM): 110 ± 1%; remaining activity at 100 µM ([1]; ARG 100 µM, inhibitor 100 µM): 110 ± 6%; remaining activity at 1000 µM ([1]; ARG 100 µM, inhibitor 1,000 µM): 104 ± 3%; remaining activity at 10000 µM ([1]; ARG 100 µM): 54 ± 7%; remaining activity at 1 µM ([1]; ARG 3 mM, inhibitor 1 µM): 100 ± 1%; remaining activity at 10 µM ([1]; ARG 3 mM, inhibitor 10 µM): 113 ± 26%; remaining activity at 100 µM ([1]; ARG 3 mM, inhibitor 100 µM): 106 ± 19%; remaining activity at 1000 µM ([1]; ARG 3 mM, inhibitor 1,000 µM): 100 ± 17%; remaining activity at 10000 µM ([1]; ARG 3 mM): 79 ± 20%; remaining activity at 1 µM ([2]; ARG 100 µM, inhibitor 1 µM): 92 ± 10%; remaining activity at 10 µM ([2]; ARG 100 µM, inhibitor 10 µM): 99 ± 1%; remaining activity at 100 µM ([2]; ARG 100 µM, inhibitor 100 µM): 99 ± 2%; remaining activity at 1000 µM ([2]; ARG 100 µM, inhibitor 1,000 µM): 92 ± 7%; remaining activity at 10000 µM ([2]; ARG 100 µM): 77 ± 16%; remaining activity at 1 µM ([2]; ARG 2 mM, inhibitor 1 µM): 98 ± 1%; remaining activity at 10 µM ([2]; ARG 2 mM, inhibitor 10 µM): 97 ± 7%; remaining activity at 100 µM ([2]; ARG 2 mM, inhibitor 100 µM): 96 ± 12%; remaining activity at 1000 µM ([2]; ARG 2 mM, inhibitor 1,000 µM): 98 ± 10%; remaining activity at 10000 µM ([2]; ARG 2 mM): 75 ± 8%
